What was measured:
[1] = tested on: Rattus norvegicus; assay: Antiinflammatory activity in rat assessed as inhibition of carrageenan-induced paw edema at 150 mg/kg; assay type: functional
[2] = tested on: Oryctolagus cuniculus; assay: Antiinflammatory activity in rabbit assessed as inhibition of edema at 200 ug per site by reversed passive arthus test; assay type: functional

Row | Compound | inhibition in vivo at 150 mg/kg [1] | inhibition (INH) [2]
1 | CC(C)Cc1ccc(C(C)C(=O)O)cc1 (stereo not given) [IBUPROFEN] | 56% | 54%
2 | COc1ccc2cc([C@H](C)C(=O)O)ccc2c1 [NAPROXEN] | – | 55%
3 | COc1ccc2c(c1)c(CC(=O)O)c(C)n2C(=O)c1ccc(Cl)cc1 [INDOMETHACIN] | – | 57%
4 | CC(C(=O)O)c1ccc2c(c1)Cc1ccccc1-2 (stereo not given) [CICLOPROFEN] | 66% | 36%
5 | CCCCC1C(=O)N(c2ccccc2)N(c2ccccc2)C1=O [PHENYLBUTAZONE] | 59% | 44%
6 | CC(C(=O)O)c1ccc2c(c1)C[C@H]1CCCC[C@@H]21 (stereo not given in full) | 63% | 55%

— ChEMBL document CHEMBL3243934, “Synthesis and antiinflammatory activity of cis-4,5,6,7,8,8a,9-hexahydro-alpha-methyl-5H-fluorene-2-acetic acid” (1977)
